{
  "source": "ChEMBL document CHEMBL1795295",
  "about": "“Synthesis and antimycobacterial activity of highly functionalized tetrahydro-4(1H)-pyridinones” (2011)",
  "data": [
    {"test_system": "Mycobacterium tuberculosis", "assay": "Antimycobacterial activity against Mycobacterium tuberculosis H37Rv by agar dilution method", "assay_type": "functional", "units": {"MIC": "µM"}, "values": [
      {"compound": "O=C1C[C@H](c2ccc(Cl)cc2)N[C@H](c2ccc(Cl)cc2)[C@H]1c1ccccc1", "MIC": 31.5},
      {"compound": "Cc1ccc([C@H]2N[C@@H](c3ccc(C)cc3)CC(=O)[C@@H]2c2ccccc2)cc1", "MIC": 70.3},
      {"compound": "O=C1C[C@H](c2ccc(F)cc2)N[C@H](c2ccc(F)cc2)[C@H]1c1ccccc1", "MIC": 34.4},
      {"compound": "O=C1C[C@H](c2ccccc2Cl)N[C@H](c2ccccc2Cl)[C@H]1c1ccccc1", "MIC": 31.5},
      {"compound": "Cc1ccccc1[C@H]1N[C@@H](c2ccccc2C)CC(=O)[C@@H]1c1ccccc1", "MIC": 70.3},
      {"compound": "COc1ccccc1[C@H]1N[C@@H](c2ccccc2OC)CC(=O)[C@@H]1c1ccccc1", "MIC": 64.5},
      {"compound": "O=C1[C@H](c2ccccc2)[C@@H](c2ccccc2)N[C@@H](c2ccccc2)[C@@H]1c1ccccc1", "MIC": 62},
      {"compound": "O=C1[C@H](c2ccccc2)[C@@H](c2ccc(Cl)cc2)N[C@@H](c2ccc(Cl)cc2)[C@@H]1c1ccccc1", "MIC": 13.2},
      {"compound": "Cc1ccc([C@H]2N[C@@H](c3ccc(C)cc3)[C@H](c3ccccc3)C(=O)[C@@H]2c2ccccc2)cc1", "MIC": 29},
      {"compound": "COc1ccc([C@H]2N[C@@H](c3ccc(OC)cc3)[C@H](c3ccccc3)C(=O)[C@@H]2c2ccccc2)cc1", "MIC": 27},
      {"compound": "O=C1[C@H](c2ccccc2)[C@@H](c2ccc(F)cc2)N[C@@H](c2ccc(F)cc2)[C@@H]1c1ccccc1", "MIC": 7.12},
      {"compound": "O=C1[C@H](c2ccccc2)[C@@H](c2ccccc2Cl)N[C@@H](c2ccccc2Cl)[C@@H]1c1ccccc1", "MIC": 13.2},
      {"compound": "Cc1ccccc1[C@H]1N[C@@H](c2ccccc2C)[C@H](c2ccccc2)C(=O)[C@@H]1c1ccccc1", "MIC": 29},
      {"compound": "COc1ccccc1[C@H]1N[C@@H](c2ccccc2OC)[C@H](c2ccccc2)C(=O)[C@@H]1c1ccccc1", "MIC": 27},
      {"compound": "O=NN1C(c2ccccc2)CC(=O)C(c2ccccc2)C1c1ccccc1", "note": "(stereo not drawn)", "MIC": 17.5},
      {"compound": "O=NN1C(c2ccc(Cl)cc2)CC(=O)C(c2ccccc2)C1c1ccc(Cl)cc1", "note": "(stereo not drawn)", "MIC": 7.35},
      {"compound": "Cc1ccc(C2CC(=O)C(c3ccccc3)C(c3ccc(C)cc3)N2N=O)cc1", "note": "(stereo not drawn)", "MIC": 8.14},
      {"compound": "O=NN1C(c2ccc(F)cc2)CC(=O)C(c2ccccc2)C1c1ccc(F)cc1", "note": "(stereo not drawn)", "MIC": 3.97},
      {"compound": "Cc1ccccc1C1CC(=O)C(c2ccccc2)C(c2ccccc2C)N1N=O", "note": "(stereo not drawn)", "MIC": 8.14},
      {"compound": "O=NN1C(c2ccccc2)C(c2ccccc2)C(=O)C(c2ccccc2)C1c1ccccc1", "note": "(stereo not drawn)", "MIC": 14.4},
      {"compound": "O=NN1C(c2ccc(Cl)cc2)C(c2ccccc2)C(=O)C(c2ccccc2)C1c1ccc(Cl)cc1", "note": "(stereo not drawn)", "MIC": 3.11},
      {"compound": "Cc1ccc(C2C(c3ccccc3)C(=O)C(c3ccccc3)C(c3ccc(C)cc3)N2N=O)cc1", "note": "(stereo not drawn)", "MIC": 6.79},
      {"compound": "COc1ccc(C2C(c3ccccc3)C(=O)C(c3ccccc3)C(c3ccc(OC)cc3)N2N=O)cc1", "note": "(stereo not drawn)", "MIC": 12.7},
      {"compound": "O=NN1C(c2ccccc2Cl)C(c2ccccc2)C(=O)C(c2ccccc2)C1c1ccccc1Cl", "note": "(stereo not drawn)", "MIC": 3.11},
      {"compound": "Cc1ccccc1C1C(c2ccccc2)C(=O)C(c2ccccc2)C(c2ccccc2C)N1N=O", "note": "(stereo not drawn)", "MIC": 6.79},
      {"compound": "COc1ccccc1C1C(c2ccccc2)C(=O)C(c2ccccc2)C(c2ccccc2OC)N1N=O", "note": "(stereo not drawn)", "MIC": 6.35},
      {"compound": "N#CN1C(c2ccccc2)CC(=O)C(c2ccccc2)C1c1ccccc1", "note": "(stereo not drawn)", "MIC": 70.9},
      {"compound": "N#CN1C(c2ccc(Cl)cc2)CC(=O)C(c2ccccc2)C1c1ccc(Cl)cc1", "note": "(stereo not drawn)", "MIC": 29.7},
      {"compound": "Cc1ccc(C2CC(=O)C(c3ccccc3)C(c3ccc(C)cc3)N2C#N)cc1", "note": "(stereo not drawn)", "MIC": 65.7},
      {"compound": "COc1ccc(C2CC(=O)C(c3ccccc3)C(c3ccc(OC)cc3)N2C#N)cc1", "note": "(stereo not drawn)", "MIC": 30.3},
      {"compound": "N#CN1C(c2ccc(F)cc2)CC(=O)C(c2ccccc2)C1c1ccc(F)cc1", "note": "(stereo not drawn)", "MIC": 16.1},
      {"compound": "N#CN1C(c2ccccc2)C(c2ccccc2)C(=O)C(c2ccccc2)C1c1ccccc1", "note": "(stereo not drawn)", "MIC": 58.3},
      {"compound": "N#CN1C(c2ccc(Cl)cc2)C(c2ccccc2)C(=O)C(c2ccccc2)C1c1ccc(Cl)cc1", "note": "(stereo not drawn)", "MIC": 25.1},
      {"compound": "N#CN1C(c2ccccc2Cl)C(c2ccccc2)C(=O)C(c2ccccc2)C1c1ccccc1Cl", "note": "(stereo not drawn)", "MIC": 12.6},
      {"compound": "Cc1ccccc1C1C(c2ccccc2)C(=O)C(c2ccccc2)C(c2ccccc2C)N1C#N", "note": "(stereo not drawn)", "MIC": 27.4},
      {"compound": "CC[C@@H](CO)NCCN[C@@H](CC)CO", "note": "[ETHAMBUTOL]", "MIC": 7.6},
      {"compound": "NNC(=O)c1ccncc1", "note": "[ISONIAZID]", "MIC": 0.4},
      {"compound": "NC(=O)c1cnccn1", "note": "[PYRAZINAMIDE]", "MIC": 50.8}
    ]}
  ]
}
